This is an account of results in patent US20240131038A1, “ANTI-INFLAMMATORY COMPOSITIONS COMPRISING CANNABIDIOL, DELTA-9-TETRAHYDROCANNABINOL AND LINALOOL” (Cymra Life Sciences Limited, priority 2020, published 2024).

What all share (format): cell-based, murine
Common to all, as to conditions: for IC50: Mus musculus

The test system of assay [1] is NO release. The experiment in a line: Nitric oxide (NO) assay: NO release in LPS-stimulated RAW264.7 macrophages (Griess reagent). The protocol:
(§1) Anti-inflammatory activity was determined in lipopolysaccharide (LPS) stimulated murine macrophages, RAW264.7 cells cultured in standard cell culture media (DMEM, Fetal bovine serum 5%) and incubated in the presence or absence of different test compounds/extracts and controls. The production of inflammatory mediators, including NO, cytokines TNFα and IL-6, were measured by established methods using commercial ELISA kits (Table 3). Each sample was tested with at least 6 concentrations (using 3 replicates; i.e., n=9), with relevant internal controls (Table 3). The cytotoxicity of each sample tested was determined by MTT assay.
(§2) Briefly, for the NO, TNFα and IL-6 assays the cultured RAW264.7 cells were counted and plated (0.8×10^5 cells/well) in 96 well plates and incubated for 48 hours. The medium was then aspirated and replaced with fresh medium followed by the addition of the test compounds. The compounds were incubated for 1 hour prior to the addition of the stimulant. The plates were then incubated for 18 hours and the supernatant analyzed for the inflammatory mediator of interest, the remaining cell viability was determined by MTT.
(§3) The data are presented as mean and standard error of mean (SEM). The dose response curves were fit using Graph Pad Prism. The 95% confidence intervals (CI) were calculated using the whole data set and give an estimate error in the IC50 value. The 95% CI for the IC50 where the IC50 was not reached in the testing concentrations require graphical extrapolation to calculate the IC50. Where the IC50 has been estimated by graphical extrapolation “˜” is used to indicate that it is an estimate and not experimentally determined, unless otherwise stated. The graphical extrapolation results in a wider 95% confidence interval.
(§4) The synergism combination index (CI) and isobologram IC50 weightings were calculated using Compsyn software. The dose response curve generated in GraphPad prism was transformed into 15 points representing the curve. These 15 points were then entered into the Compsyn program that generated a curve to fit the data points. This method was preferable to closely replicate the complete dose response curve in the synergy program. The Compsyn fit curve was then used for synergy calculations.
(§5) A CI value of less than 0.5 is considered highly synergistic, a CI of less than 1 indicates synergy, a CI of from 1.5 to 1 is considered additive, a CI of from 4 to 1.5 is indifferent and a CI greater than 4 is considered antagonism.
(In general: The Griess reaction detects nitrite, a stable product of nitric oxide.)

The test system of assay [2] is IL-6 release. The experiment in a line: IL-6 assay: IL-6 release in LPS-stimulated RAW264.7 macrophages (ELISA). The protocol: as §1, §2, §3, §4, §5
On the technique in general: An ELISA detects its analyte on a solid surface through an enzyme-linked reagent.

Assay [3] has as its system TNF-α release. The experiment in a line: TNF-α assay: TNF-α release in LPS-stimulated RAW264.7 macrophages (ELISA). The method, then:
as §1, §2, §3, §4, §5

Setting [4] is: RAW264.7, 18 h, read-out: IC50 for NO inhibition.
[5] abbreviates: RAW264.7, 18 h, IL-6 assay, total concentration of the combination, Table 11, read-out: GraphPad IC50.
Where [6] appears, read: RAW264.7, IL-6 assay, Compusyn fit curve, Table 11, read-out: Compusyn IC50.
Where [7] appears, read: LPS-stimulated RAW264.7 cells, 18 h, Table 10, read-out: IC50 for IL-6 inhibition.
Where [8] appears, read: RAW264.7, read-out: Compusyn IC50.
Setting [9] is: RAW264.7, 18 h, TNF-α inhibition, total concentration of the combination, Table 8, read-out: GraphPad IC50.
[10] abbreviates: RAW264.7, TNF-α inhibition, Compusyn fit curve, Table 8, read-out: Compusyn IC50.
Setting [11] is: LPS-stimulated RAW264.7 cells, 18 h, Table 7, read-out: IC50 for TNF-α inhibition.

Read-outs that look alike come from different tables or passages of the source.

By IC50 is commonly meant the concentration that inhibits the measured activity by half. Take `CC(=N)NCc1cccc(CN)c1` [1400 W, N-(3-(Aminomethyl)benzyl)acetamidine]: the IC50 in assay [1] (setting [4]) was found to be 1.2 µg/mL.

For the molecule `C=CC(C)(O)CCC=C(C)C` (stereo not drawn) [Linalool, linalool], the “Compusyn IC50” value in assay [2] (IL-6 assay, Table 12) was more than 240 µg/mL; in assay [1] (NO assay, Table 6) it was more than 240 µg/mL; in assay [3] (TNF-α assay, Table 9), more than 240 µg/mL. Besides, the IC50 in assay [2] (setting [5]), in assay [2] (setting [6]), in assay [2] (setting [7]), in assay [1] (setting [4]), in assay [1] (setting [8]) and in assay [3] (setting [9]) was more than 240 µg/mL each time. Besides, the IC50 in assay [3] (setting [10]) and in assay [3] (setting [11]) was more than 240 µg/mL each time.

In the case of `CCCCCc1cc(O)c2c(c1)OC(C)(C)[C@@H]1CCC(C)=C[C@@H]21` [THC, Δ-9-tetrahydrocannabinol], the IC50 in assay [2] (setting [5]) came out at 4.2 µg/mL; in assay [2] (setting [6]), 4.2 µg/mL; in assay [2] (setting [7]) it was 4.2 µg/mL; in assay [1] (setting [4]) it was 6.5 µg/mL; in assay [1] (setting [8]), 6.5 µg/mL; in assay [3] (setting [9]), 44 µg/mL. Also, the figures for the IC50 in assay [3] (setting [10]) and in assay [3] (setting [11]) were 45 µg/mL and 44 µg/mL, respectively.

In the case of `C=C(C)[C@@H]1CCC(C)=C[C@H]1c1c(O)cc(CCCCC)cc1O` [CBD, cannabidiol], the “IL-6 inhibition and synergy, result in words” value in assay [2] (LPS-stimulated RAW264.7 cells) is recorded as “most active compound for IL-6 inhibition”. Moreover, the IC50 in assay [2] (setting [5]) was found to be 1.4 µg/mL; in assay [2] (setting [6]) it was 1.4 µg/mL; in assay [2] (setting [7]) it was 1.4 µg/mL; in assay [1] (setting [4]), 1.4 µg/mL; in assay [1] (setting [8]), 1.4 µg/mL; in assay [3] (setting [9]) it was 4.6 µg/mL. The IC50 in assay [3] (setting [10]) and in assay [3] (setting [11]) was 4.6 µg/mL throughout. In addition, the “NO inhibition and synergy, result in words” value in assay [1] (LPS-stimulated RAW264.7 cells) is on record as “most active compound for NO inhibition”. Besides, the “TNF-α inhibition and synergy, result in words” value in assay [3] (LPS-stimulated RAW264.7 cells) is recorded as “most active compound for TNF-α inhibition”.

As for `C[C@@H]1C[C@H]2[C@@H]3CCC4=CC(=O)C=C[C@]4(C)[C@@]3(F)[C@@H](O)C[C@]2(C)[C@@]1(O)C(=O)CO` [Dexamethasone, dexamethasone], the IC50 in assay [2] (setting [7]) came to 0.016 µg/mL; in assay [3] (setting [11]), 2.7 µg/mL.
